# Results from PubChem BioAssay AID180 (DTP/NCI, 2004).
# Several values for one entry are separate records, joined by “and”; a condition that tells them apart may be missing. Equal entries are not always repeated.
# System: BDF1 mice, Adenocarcinoma 755 s.c., tumor weight T/C
# Experiment: NCI In Vivo Anticancer Drug Screen. Data for tumor model Adenocarcinoma 755 (subcutaneous) in B6D2F1 (BDF1) mice
# Conditions: endpoint: mean tumor weight, higher = larger tumour
# Description: The antitumor activity of compounds was measured in mice bearing transplantable tumors. Survival or tumor size were measured and the results are expressed as the measurement made in the treated group (T) divided by the measurement made in the vehicle treated control group (C). The tumor model used in this assay is Adenocarcinoma 755 (subcutaneous) in B6D2F1 (BDF1) mice
structure (smiles),measurement,setting,value
CC(=O)[C@@]1(O)CC[C@H]2[C@@H]3C[C@H](C)C4=CC(=O)C=C[C@]4(C)[C@@]3(F)[C@@H](O)C[C@@]21C,T/C,"dose: 0.37 mg/kg/injection, schedule: Q#A X022 (sc), vehicle: steriod suspending solution",55 % of control
same,T/C,"dose: 0.5 mg/kg/injection, schedule: Q01DX011 (sc), vehicle: steriod suspending solution",40 % of control
same,T/C,"dose: 0.75 mg/kg/injection, schedule: Q#A X022 (sc), vehicle: steriod suspending solution",67 % of control
same,T/C,"dose: 1.0 mg/kg/injection, schedule: Q03DX004 (sc), vehicle: steriod suspending solution",62 % of control
same,T/C,"dose: 1.5 mg/kg/injection, schedule: Q#A X022 (sc), vehicle: steriod suspending solution",44 % of control
same,T/C,"dose: 1.6 mg/kg/injection, schedule: Q01DX011 (sc), vehicle: steriod suspending solution",57 % of control
same,T/C,"dose: 2.0 mg/kg/injection, schedule: Q03DX004 (sc), vehicle: steriod suspending solution",44 % of control
same,T/C,"dose: 3.0 mg/kg/injection, schedule: Q01DX011 (im), vehicle: steriod suspending solution",43 % of control
same,T/C,"dose: 3.0 mg/kg/injection, schedule: Q01DX011 (sc), vehicle: steriod suspending solution",47 % of control and 51 % of control
same,T/C,"dose: 3.0 mg/kg/injection, schedule: Q#A X022 (sc), vehicle: steriod suspending solution",39 % of control
same,T/C,"dose: 3.2 mg/kg/injection, schedule: Q01DX011 (sc), vehicle: steriod suspending solution",31 % of control
same,T/C,"dose: 4.0 mg/kg/injection, schedule: Q03DX004 (sc), vehicle: steriod suspending solution",72 % of control
same,T/C,"dose: 6.0 mg/kg/injection, schedule: Q01DX011 (im), vehicle: steriod suspending solution",38 % of control
same,T/C,"dose: 6.0 mg/kg/injection, schedule: Q01DX011 (sc), vehicle: steriod suspending solution",16 % of control and 25 % of control
same,T/C,"dose: 6.3 mg/kg/injection, schedule: Q01DX011 (sc), vehicle: steriod suspending solution",49 % of control
same,T/C,"dose: 8.0 mg/kg/injection, schedule: Q03DX004 (sc), vehicle: steriod suspending solution",52 % of control
same,T/C,"dose: 9.0 mg/kg/injection, schedule: Q03DX004 (sc), vehicle: steriod suspending solution",35 % of control
same,T/C,"dose: 12.0 mg/kg/injection, schedule: Q01DX011 (sc), vehicle: steriod suspending solution",16 % of control
same,T/C,"dose: 12.5 mg/kg/injection, schedule: Q01DX006 (iv), vehicle: steriod suspending solution",45 % of control
same,T/C,"dose: 12.5 mg/kg/injection, schedule: Q01DX011 (im), vehicle: steriod suspending solution",21 % of control
same,T/C,"dose: 12.5 mg/kg/injection, schedule: Q01DX011 (ip), vehicle: steriod suspending solution",48 % of control
same,T/C,"dose: 12.5 mg/kg/injection, schedule: Q01DX011 (sc), vehicle: steriod suspending solution",19 % of control and 39 % of control
same,T/C,"dose: 18.0 mg/kg/injection, schedule: Q03DX004 (sc), vehicle: steriod suspending solution",35 % of control
same,T/C,"dose: 22.0 mg/kg/injection, schedule: Q## X002 (sc), vehicle: steriod suspending solution",55 % of control
same,T/C,"dose: 24.0 mg/kg/injection, schedule: Q01DX011 (sc), vehicle: steriod suspending solution",20 % of control
same,T/C,"dose: 25.0 mg/kg/injection, schedule: Q01DX006 (iv), vehicle: steriod suspending solution",30 % of control
same,T/C,"dose: 25.0 mg/kg/injection, schedule: Q01DX011 (im), vehicle: steriod suspending solution",12 % of control
same,T/C,"dose: 25.0 mg/kg/injection, schedule: Q01DX011 (ip), vehicle: steriod suspending solution",42 % of control
same,T/C,"dose: 25.0 mg/kg/injection, schedule: Q01DX011 (sc), vehicle: steriod suspending solution",12 % of control
same,T/C,"dose: 27.5 mg/kg/injection, schedule: Q01DX011 (sc), vehicle: steriod suspending solution",36 % of control and 54 % of control
same,T/C,"dose: 37.0 mg/kg/injection, schedule: Q03DX004 (sc), vehicle: steriod suspending solution",36 % of control
same,T/C,"dose: 43.0 mg/kg/injection, schedule: Q## X002 (sc), vehicle: steriod suspending solution",30 % of control
same,T/C,"dose: 50.0 mg/kg/injection, schedule: Q01DX006 (iv), vehicle: steriod suspending solution",25 % of control
same,T/C,"dose: 50.0 mg/kg/injection, schedule: Q01DX011 (im), vehicle: steriod suspending solution",14 % of control
same,T/C,"dose: 50.0 mg/kg/injection, schedule: Q01DX011 (ip), vehicle: steriod suspending solution",34 % of control
same,T/C,"dose: 50.0 mg/kg/injection, schedule: Q01DX011 (oral), vehicle: steriod suspending solution",47 % of control
same,T/C,"dose: 50.0 mg/kg/injection, schedule: Q01DX011 (sc), vehicle: steriod suspending solution",11 % of control
same,T/C,"dose: 55.0 mg/kg/injection, schedule: Q01DX011 (sc), vehicle: steriod suspending solution",28 % of control
same,T/C,"dose: 75.0 mg/kg/injection, schedule: Q03DX004 (sc), vehicle: steriod suspending solution",18 % of control
same,T/C,"dose: 87.0 mg/kg/injection, schedule: Q01DX001 (sc), vehicle: steriod suspending solution",53 % of control and 66 % of control
same,T/C,"dose: 87.0 mg/kg/injection, schedule: Q07DX002 (sc), vehicle: steriod suspending solution",37 % of control
same,T/C,"dose: 100.0 mg/kg/injection, schedule: Q01DX006 (iv), vehicle: steriod suspending solution",19 % of control
same,T/C,"dose: 100.0 mg/kg/injection, schedule: Q01DX011 (im), vehicle: steriod suspending solution",7 % of control
same,T/C,"dose: 100.0 mg/kg/injection, schedule: Q01DX011 (oral), vehicle: steriod suspending solution",59 % of control
same,T/C,"dose: 100.0 mg/kg/injection, schedule: Q01DX011 (sc), vehicle: steriod suspending solution",13 % of control
same,T/C,"dose: 150.0 mg/kg/injection, schedule: Q03DX004 (sc), vehicle: steriod suspending solution",25 % of control
same,T/C,"dose: 175.0 mg/kg/injection, schedule: Q01DX001 (sc), vehicle: steriod suspending solution",38 % of control and 43 % of control
same,T/C,"dose: 175.0 mg/kg/injection, schedule: Q07DX002 (sc), vehicle: steriod suspending solution",27 % of control
same,T/C,"dose: 200.0 mg/kg/injection, schedule: Q01DX006 (iv), vehicle: steriod suspending solution",14 % of control
same,T/C,"dose: 200.0 mg/kg/injection, schedule: Q01DX011 (im), vehicle: steriod suspending solution",8 % of control
same,T/C,"dose: 200.0 mg/kg/injection, schedule: Q01DX011 (oral), vehicle: steriod suspending solution",42 % of control
same,T/C,"dose: 200.0 mg/kg/injection, schedule: Q01DX011 (sc), vehicle: steriod suspending solution",3 % of control
same,T/C,"dose: 300.0 mg/kg/injection, schedule: Q01DX011 (sc), vehicle: steriod suspending solution",7 % of control
same,T/C,"dose: 300.0 mg/kg/injection, schedule: Q03DX004 (sc), vehicle: steriod suspending solution",15 % of control
same,T/C,"dose: 350.0 mg/kg/injection, schedule: Q01DX001 (sc), vehicle: steriod suspending solution",28 % of control and 47 % of control
same,T/C,"dose: 350.0 mg/kg/injection, schedule: Q07DX002 (sc), vehicle: steriod suspending solution",19 % of control
same,T/C,"dose: 400.0 mg/kg/injection, schedule: Q01DX011 (oral), vehicle: steriod suspending solution",34 % of control
same,T/C,"dose: 400.0 mg/kg/injection, schedule: Q03DX004 (sc), vehicle: steriod suspending solution",19 % of control
same,T/C,"dose: 500.0 mg/kg/injection, schedule: Q01DX011 (oral), vehicle: steriod suspending solution",37 % of control
same,T/C,"dose: 600.0 mg/kg/injection, schedule: Q01DX011 (oral), vehicle: steriod suspending solution",38 % of control
same,T/C,"dose: 600.0 mg/kg/injection, schedule: Q03DX004 (sc), vehicle: steriod suspending solution",15 % of control
same,T/C,"dose: 700.0 mg/kg/injection, schedule: Q01DX001 (sc), vehicle: steriod suspending solution",26 % of control and 43 % of control
same,T/C,"dose: 700.0 mg/kg/injection, schedule: Q07DX002 (sc), vehicle: steriod suspending solution",19 % of control
same,T/C,"dose: 1000.0 mg/kg/injection, schedule: Q01DX001 (sc), vehicle: steriod suspending solution",36 % of control and 45 % of control
same,T/C,"dose: 1000.0 mg/kg/injection, schedule: Q## X002 (sc), vehicle: steriod suspending solution",22 % of control
same,T/C,"dose: 1500.0 mg/kg/injection, schedule: Q01DX001 (sc), vehicle: steriod suspending solution",24 % of control and 40 % of control
same,T/C,"dose: 1500.0 mg/kg/injection, schedule: Q## X002 (sc), vehicle: steriod suspending solution",24 % of control
C=CC(O)CN1CC1=C (stereo not drawn),T/C,"dose: 1.9 mg/kg/injection, schedule: Q01DX011 (ip), vehicle: methylcellulose (MC)",77 % of control
same,T/C,"dose: 3.75 mg/kg/injection, schedule: Q01DX011 (ip), vehicle: methylcellulose (MC)",111 % of control
same,T/C,"dose: 7.5 mg/kg/injection, schedule: Q01DX011 (ip), vehicle: methylcellulose (MC)",73 % of control
same,T/C,"dose: 15.0 mg/kg/injection, schedule: Q01DX011 (ip), vehicle: methylcellulose (MC)",21 % of control
CCCCNC(=O)c1n[se]nc1N,T/C,"dose: 2.0 mg/kg/injection, schedule: Q01DX011 (ip), vehicle: carboxymethylcellulose (CMC)",76 % of control
same,T/C,"dose: 4.0 mg/kg/injection, schedule: Q01DX011 (ip), vehicle: carboxymethylcellulose (CMC)",87 % of control
Cn1c(N)nc2n[nH]nc2c1=O,T/C,"dose: 30.0 mg/kg/injection, schedule: Q01DX011 (ip), vehicle: carboxymethylcellulose (CMC)",105 % of control
same,T/C,"dose: 60.0 mg/kg/injection, schedule: Q01DX011 (ip), vehicle: carboxymethylcellulose (CMC)",119 % of control
same,T/C,"dose: 100.0 mg/kg/injection, schedule: Q01DX011 (ip), vehicle: carboxymethylcellulose (CMC)",98 % of control
same,T/C,"dose: 120.0 mg/kg/injection, schedule: Q01DX011 (ip), vehicle: carboxymethylcellulose (CMC)",46 % of control
same,T/C,"dose: 240.0 mg/kg/injection, schedule: Q01DX011 (ip), vehicle: carboxymethylcellulose (CMC)",97 % of control
